The values that follow are results of earlier work, collected in patent US20170245495A1, “CHEMICAL LURE FOR ASIAN CITRUS PSYLLID” (The Regents of the University of California, priority 2014, published 2017).

Like-named read-outs stand apart in the source and are kept apart here.

For the data set, the system named is D. citri. The settings on record: Mann et al. 2012, Patt and Setamou 2010.

On to `C=CC(C)(O)CCC=C(C)C` (stereo not shown) [linalool], for which the “attraction of D. citri (literature)” value is “attractive to D. citri”. Regarding `COC(=O)c1ccccc1O` [methyl salicylate], the “attraction of D. citri (literature)” value is listed as “implicated as D. citri attractants”. For the same compound, the “attraction of D. citri (literature)” value (listed as MeSA) is listed as “attractant for D. citri”. As for `C=C/C(C)=C/CC=C(C)C` [β-ocimene, (E)-β-ocimene], the “attraction of D. citri (literature)” value is given as “attractive to D. citri”.
